Data as given in patent publication US20150080380A1, “Therapeutic Uses” (GLAXOSMITHKLINE INTELLECTUAL PROPERTY DEVELOPMENT LIMITED, priority 2012, published 2015).
Where a name gives a salt, the structure may show the parent alone.

system: OPC differentiation; assay: Oligodendrocyte precursor cell (OPC) differentiation assay (MBP immunocytochemistry); assay type: cell-based, rat; details: Rattus norvegicus, Oligodendrocyte precursor cell, 96 h; 0.3 nM-10 uM, 4 days, FIG. 1; read-out: EC50, promotion of OPC differentiation (MBP+ population)
Procedure: The effects of small-molecule inverse agonists and neutral antagonists of histamine receptor 3 (H3R) on OPC differentiation were determined using the following assay.
The enriched OPC were obtained from dissecting 2-d-old rat pups forebrain. The pups were anesthetized and decapitated. Then the skull was cut with microdissecting scissors and the cortex was taken out with Dumont forceps. The meninges were removed with fine tips. After repeated trituration of the cortex through cell strainer, cells were re-suspended with the culture media consisted of DMEM supplemented with 20% Fetal bovine serum (Invitrogen, Carlsbad, Calif.), glutamine (4 mM, (Invitrogen), and plated onto poly-D-lysine (PDL, […] for 1 h, Sigma, St. Louis, Mo.)-coated T75 flasks. The resulting cultures were fed with fresh culture media twice per week and almost all the neurons will die due to the high concentration of serum in one week. Then the mixed glial cells were subjected to a series shake-off procedure to obtain pure OPCs two weeks later. Specifically, the mixed glial cells were shaken initially for 1 hour at 100 rpm to remove microglia and shaken for 20-22 hours at 37° C. at 200 rpm to enrich OPCs. OPCs were collected by centrifugation at 1200 rpm for 5 min, re-suspended in basal chemically defined medium (BDM). BDM consisted of DMEM supplemented with N2 medium (100×, Invitrogen), glutamine (4 mM, Invitrogen), BSA (0.1 mg/ml, Sigma), hydrocortisone (20 nM, Sigma), selenium (30 nM, Sigma) and biotin (10 nM, Sigma). OPCs were plated on poly-ornithine (PO, 50 μg/ml for 1 hr, Sigma)-coated culture dishes and maintained in BDM supplemented with bFGF (10 ng/ml, Invitrogen) and PDGF (10 ng/ml, PeproTech, Rocky Hill, N.J.) before experimental manipulation. OPCs were 95% pure judged by A2B5+ staining.
To initiate OPC differentiation, OPCs were firstly treated with 0.05% Trypsin/EDTA, and seeded into PO-coated 384-mini well plate at a density of 2,000 to 5,000 cells/well. Each test compound was dissolved in DMSO at the concentration of 10 mM for the assay. Compounds at different concentrations (full dose curve, 0.3 nM-10 uM) were added into the OPC culture in duplicates with Echo machine (Thermo, Waltham, Mass.). OPCs were cultured in BDM supplemented with N-acetyl-L-cystenine (30 μM, Sigma) to differentiate into mature oligodendrocytes for 4 days. BDM comprise DMEM (Invitrogen), N2 (100×, Invitrogen), L-Glu (50×, Invitrogen), Sodium Pyruvate (100×, Invitrogen), BSA (0.1%, Sigma), Biotin (10 nM, Sigma), hydrocortisone (10 nM, Sigma). The resulting cultures were fixed with 4% polyformaldehyde (Sigma) and samples were blocked with the blocking buffer (Donkey Serum 3%, Sigma; Triton X-100 0.04%, Sigma). Then fixed cells were incubated in primary antibodies (anti-myelin basic protein, MBP antibody, 600× dilution in blocking buffer) overnight at 4° C., washed thoroughly with PBS and then incubated with Alexa 488-labeled secondary antibody (Molecular Probes, Invitrogen) for 2 h at R.T; then washed thoroughly with PBS and stained with Dapi (1 ug/ml, Sigma),
The full-plate immunocytochemistry staining was read by an automatic image-based analysis system-Cellomics (Thermo) and the raw data for each well was acquired as percentage of MBP+ population as follows: Pictures of eight fields per well were captured and analyzed quantitatively; the well data is the average of 8 fields. The intensity of anti-MBP staining in the cytosol was used as the criteria of positive objects. The threshold of positive objects was set based on the average intensity of the positive control well, for which triiodothyronine (15 nM) was used. Then the data was analyzed and presented as fold change of the number of the vehicle control well. Graphs were generated by softwares: Microsoft Excel and IDBS XL fits. The curve fitting was performed with software XL fits to derive EC50 of the positive compounds.
All data except FIG. 1 are given as mean±standard error of the mean (SEM). […]

Structure (SMILES) | EC50 [µM]
N=C(NCc1ccc(Cl)cc1)SCCCc1c[nH]cn1 [Example compound 8, 3-(1H-imidazol-4-yl)propyl 4-chlorobenzylcarbamimidothioate dihydrobromide, reference compound] | 0.048
CC(C)N1CCC(OC2CCN(c3ccc(C#N)cc3)CC2)CC1 [Example compound 3, 4-(4-((1-isopropylpiperidin-4-yl)oxy)piperidin-1-yl)benzonitrile hydrochloride] | 0.031
C[C@@H]1CCCN1CCCOc1ccc(-c2ccc(=O)[nH]n2)cc1 [Example compound 7, (R)-6-(4-(3-(2-methylpyrrolidin-1-yl)propoxy)phenyl)pyridazin-3(2H)-one, reference compound] | 0.25
Clc1ccc(CCCOCCCN2CCCCC2)cc1 [Example compound 6, 1-(3-(3-(4-chlorophenyl)propoxy)propyl)piperidine, reference compound] | 0.014

same assay, conditions: all concentrations (0.3 nM-10 uM), FIG. 1b

Structure (SMILES) | effect on OPC differentiation
c1ccc(COCCCc2cnc[nH]2)cc1 [Example compound 4, 4-[3-(Phenylmethoxy)propyl]-1H-imidazole oxalate, reference compound] | didn't show any effect
c1nc(CCCC2CCNCC2)c[nH]1 [Example compound 5, 4-[3-(1H-Imidazol-4-yl)propyl]piperidine dihydrobromide, reference compound] | didn't show any effect
